Source: ChEMBL document CHEMBL3507680, “University of Dundee, Gates Library screen for HepG2 cell viability”

Assay: Human HepG2 cell viability assay in 384 well format
Type: toxicity, cell-based
Set-up: dose 125 nL, time 70.5 hour; cytotoxicity at 70.5 h: concentration not given beside the values
Settings: HepG2 cells, read-out: Inhibition

| Compound | cytotoxicity at 70.5 h [%] |
| --- | --- |
| Cc1ccccc1OC1(C(=O)O)CCN(C(=O)CCc2ccco2)CC1 | -3.93 |
| COc1ccc2c(c1)CCN(CCC(=O)O)CC2 | 12.3 |
| Cc1nc(CN2CCCC(N(C)Cc3c(C)noc3C)C2)no1 (stereo not given) | 10.6 |
| Cc1cc(C)nc(N2CCC(C(=O)Nc3ncc[nH]3)CC2)n1 | -7.67 |
| CN(C(=O)COc1ccc(F)cc1)[C@@H]1CS(=O)(=O)C[C@H]1O | -0.138 |
| Cc1ccc(NC(=O)N2CCOC(C)(c3cnn(C)c3)C2)c(C)c1 (stereo not given) | -3.64 |
| Cc1ccc(N2CC[C@H](OCC3CC3)[C@@H]2Cc2cccnc2)nn1 | 1.2 |
| COc1ccc(S(=O)(=O)Nc2cnc(N(C)C)nc2)cc1 | 29.6 |
| CC(NC(=O)NC1CCN(Cc2ccncc2)CC1)c1ccc(F)cc1 (stereo not given) | -13.2 |
| Cc1cccc(CN2CCc3nnc(Cn4cccc4)n3CC2)n1 | -5.46 |
| CC(C)(C)c1cc(CN2CC[C@@H](NC(=O)c3cccnc3)[C@H](O)C2)n[nH]1 | 0.738 |
| CCn1nc(C)cc1C(=O)NCc1nc(C)no1 | -6.53 |
| Cc1nccc(C(=O)NC(CN2CCCC2=O)c2ccccc2)n1 (stereo not given) | -3.75 |
| CC(C)N1CCC(C(=O)N2CCc3c(nc(CC4CC4)[nH]c3=O)C2)CC1 | -7.62 |
| Cc1cc(C(F)(F)F)nc(C2CCCN2S(C)(=O)=O)n1 (stereo not given) | 1.14 |
| COc1ccc(-c2nc(CN3CCCS3(=O)=O)co2)cc1 | 14.5 |
| CC(=O)Nc1c(C)noc1/C=C\c1ccc(S(=O)(=O)NC2CC2)cc1 | -1.71 |
| CO[C@@H]1CCN(Cc2cnn(C)c2)[C@@H]2CN(Cc3cccnc3)C[C@@H]21 | -9.6 |
| CC(=O)NCCNC(=O)Nc1ccc(C)cc1OCc1ccccc1 | -1.2 |
| COCCC1COC2(CCN(C(=O)C3CCCCC3)CC2)C1 (stereo not given) | -5.85 |
| Cc1ccc(-c2noc(CN3CCOC(CN(C)C)C3)n2)cc1F (stereo not given) | -0.0729 |
| O=C(NCCCn1ccnc1)N1CCCC1c1ccncc1 (stereo not given) | -1.54 |
| C[C@]1(O)CCN(Cc2nccs2)C[C@@H]1Oc1cccc(F)c1 | -3.49 |
| CCn1ncc2c1C(COC)CN(Cc1ccco1)C2 (stereo not given) | 3.48 |
| COCCn1c(-c2cccc(OC)c2)cnc1NC(=O)NC(C)C | -2.89 |
| Cc1cc(F)cc2c(NCC(C)(C)C(N)=O)c(C#N)cnc12 | 11.6 |
| Cn1c(CCNC(=O)Nc2cn[nH]c2)nc2ccc(F)cc21 | -1.73 |

| Compound | cytotoxicity at 70.5 h [%] |
| --- | --- |
| CC(=O)Nc1sc2c(c1C(=O)O)CCc1ccccc1-2 | -11.4 |
| O=C(NCC(=O)N1CCCC1Cc1cccc(F)c1)c1ccccn1 (stereo not given) | -9.78 |
| Cn1ccnc1CNc1nccc(-c2ncnn2C)n1 | -14.8 |
| CN(C)C(=O)c1cccc(NC(=O)c2cnn(C)c2)c1 | -4.77 |
| Cc1ccc(Oc2ncccc2C(=O)N(C)CCCN(C)C)c(C)c1 | -5.42 |
| Cn1nc(-c2cccs2)cc1[C@H]1CN2CC[C@H]1C[C@@H]2CNS(C)(=O)=O | -6.43 |
| CC(C)(C)C(O)CN1CCN(C(=O)COCC2CC2)CC1 (stereo not given) | 1.65 |
| CCCn1nc2c(cc1=O)CN(Cc1nc(-c3ccco3)no1)CC2 | -1.15 |
| CS(=O)(=O)N1CCCC(c2cccc(-c3ccccc3F)n2)C1 (stereo not given) | -7.63 |
| CNC(=O)c1cc2c(nc1NCC1CC1)CCNCC2 | 4.29 |
| Cc1ccc(C(=O)NS(=O)(=O)c2ccccc2F)c(=O)[nH]1 | -1.46 |
| CC(C)N(C)Cc1cc(=O)n2c(n1)CN(C(=O)c1cnccn1)CCC2 | 4.66 |
| COc1cccc(Cn2ncnc2COC(C)C)c1 | -15.5 |
| CS(=O)(=O)N1CCC(Nc2ccc(C#N)c(C(F)(F)F)c2)CC1 | 8.33 |
| O=C(NCCCF)N1CCC(n2ccc(C(F)(F)F)n2)CC1 | -104 |
| COCCCNC(=O)N1CCCC(c2nncn2C)C1 (stereo not given) | -12.4 |
| COC(=O)c1cccc(CNC(=O)CC(F)(F)F)c1 | -5.17 |
| NC(=O)c1cnc(NC2CC2)nc1CCNC(=O)CC1CCCC1 | -14.3 |
| COc1ccc(-c2nc3c([nH]2)CCCNC3=O)cc1OC | 4.81 |
| CCOCc1cccc(NC(=O)C2COCCO2)c1 (stereo not given) | -7.73 |
| O=C(O)CCn1nc(C(F)(F)F)c(Cl)c1C1CC1 | -19.2 |
| CC(=O)N1CC[C@@]2(C(=O)Nc3ccccc3)CCN(S(C)(=O)=O)CC[C@@H]12 | -1.82 |
| CC1(c2ncc(CN(CC(=O)O)Cc3ccccc3)cn2)CCCCO1 (stereo not given) | -7.96 |
| O=C(c1cccc(S(=O)(=O)NCCc2cscn2)c1)N1CCOCC1 | -1.05 |
| CN1CCO[C@@H]2CN(C(=O)NCc3cccc(F)c3)CC[C@@H]2C1 | -3.54 |
| CCc1cc(CN(C)C(=O)c2cc(=O)[nH]c(=O)[nH]2)on1 | -9.27 |
| CC1CCCN(C(=O)C2CCN(c3snc4ccccc34)CC2)C1 (stereo not given) | 5.93 |

| Compound | cytotoxicity at 70.5 h [%] |
| --- | --- |
| Cc1cnccc1CN1C[C@@H](O)[C@H](Oc2ccccc2)C1 | -5.34 |
| Cc1cc(-n2c(C)cn(CN(C)C3CCS(=O)(=O)C3)c2=O)no1 (stereo not given) | -14.6 |
| NC(=O)C1CCN(c2nccc(-c3c[nH]nc3C3CCCCC3)n2)CC1 | -4.42 |
| c1cnnc(N2CCCC2CNCc2nc(-c3cccs3)no2)c1 (stereo not given) | -15.1 |
| CCOCc1ccc(NC(=O)N2CCCC2c2nncn2C)cc1 (stereo not given) | -6.88 |
| CCc1nc(CN(C)C2CCN(CCc3ccncc3)C2)no1 (stereo not given) | -1.6 |
| O=C1CC(c2ccc3c(c2)OCO3)c2c(n3ccsc3nc2=O)N1 (stereo not given) | -9.84 |
| O=C(C1CCC1)N1CCN(c2snc3ccccc23)CC1 | 44.7 |
| CC(C)CN1CC(c2nc(CCc3ccccc3)n[nH]2)CC1=O (stereo not given) | -9.23 |
| COc1ccc(NC(=O)c2nc(C)sc2C)cn1 | 28 |
| CCOc1ccc(C(=O)NC2CCN(c3ncccn3)CC2)cc1C | -0.65 |
| Cc1ccsc1CN1C[C@@H]2COC[C@]2(COCC(=O)N(C)C)C1 | -0.655 |
| COc1ccccc1CN1C(=O)O[C@@H]2CN(S(=O)(=O)N(C)C)C[C@@H]21 | -0.664 |
| CNc1snc(C)c1C(=O)N1CCCC(n2ccnc2C)C1 (stereo not given) | -4.48 |
| O=C(CCOc1ccccc1)N1CCCC(c2ncc[nH]2)C1 (stereo not given) | -20.2 |
| CCOCC1c2c(ncn2C)CCN1C(=O)c1cnc(C)cn1 (stereo not given) | -12 |
| Cn1cc(-c2ncc3c(c2C(=O)O)CCN(Cc2ccccn2)C3)cn1 | -1.31 |
| CCN(CC)c1nc2sc(C(=O)N3CCNC(=O)C3)cc2s1 | -8.64 |
| Cc1ccc(-c2cn3c(n2)CO[C@@H](CNCc2cccnc2)C3)cc1 | 11 |
| CCOc1ccccc1-c1noc(CN2CCCC(O)C2)n1 (stereo not given) | -11.1 |
| CCOc1ccc(Cl)c(C(=O)NCCc2ncc[nH]2)n1 | -3.13 |
| CCCc1cc(=O)[nH]c(SCc2ccccn2)n1 | -2.16 |
| Cc1noc(C)c1CN1C[C@@H](NS(=O)(=O)N(C)C)[C@H](C(C)C)C1 | -8.39 |
| CN1CC(C(=O)Nc2ccc(OCC(F)(F)C(F)F)nc2)CC1=O (stereo not given) | -7.73 |
| O=C(Nc1cccnc1)[C@H]1CN(Cc2ccccn2)C[C@H]2OCC[C@@H]12 | -7.69 |
| COc1ccc(C(=O)CCc2nc(C3CC3)no2)cc1 | -23.1 |
